For 20 compounds, TGI and GI50 results are on record in PubChem BioAssay (NCI).

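96-well plates; 48 h exposure; 5 concentrations. Endpoints by linear interpolation between flanking doses. Not reached: highest tested concentration assigned. At the GI50, growth is halved. TGI: total growth inhibition.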

Test systems include A498 renal; NCI-H522 lung; SNB-75 CNS; NCI-H23 lung; MOLT-4 leukemia; SN12C renal; SR leukemia; NCI/ADR-RES ovarian; DU-145 prostate; LOX IMVI melanoma.
Test in all cases: NCI tumour cell line growth inhibition, 48 h

Take `COC(=O)c1ccc(CCc2cc(O)ccc2O)cc1`: the TGI is > 96.7 µM in the test with A498 renal; 2.16 µM in the test on NCI-H522 lung; 21.2 µM with SNB-75 CNS; > 54.9 µM in the test with NCI-H23 lung; 15.3 µM in the test with MOLT-4 leukemia; 29.3 µM with SN12C renal. Moreover, the TGI is > 21 µM in the test with SR leukemia, > 90.1 µM in the test on NCI/ADR-RES ovarian, > 100 µM in the test on DU-145 prostate and 22.7 µM with LOX IMVI melanoma.

As to `S=C1C(=Nc2ccccc2)N(c2ccccc2)/C(=N\c2ccccn2)N1c1ccccc1`, the TGI was 30.4 µM in the test with A498 renal; 3.59 µM with NCI-H522 lung; 28.3 µM in the test with SNB-75 CNS; 25 µM with NCI-H23 lung; > 100 µM with MOLT-4 leukemia; 24 µM in the test on SN12C renal. The TGI in the test on SR leukemia was determined as 60.8 µM; in the test on NCI/ADR-RES ovarian, 33.7 µM; with DU-145 prostate it was 35 µM; in the test on LOX IMVI melanoma, 21.9 µM.

For `O=C(OCCN1CCCCC1)C(c1ccccc1)C1(O)CCSCC1` (stereo not given), the TGI in the test with A498 renal, with NCI-H522 lung, in the test on SNB-75 CNS, in the test on NCI-H23 lung, with MOLT-4 leukemia and in the test on SN12C renal was > 100 µM in each case. Besides, the TGI in the test on SR leukemia, with NCI/ADR-RES ovarian, in the test with DU-145 prostate and with LOX IMVI melanoma was > 100 µM in each case.

Take `Cc1ccc(-n2c(O)c3c(N)n[nH]c3c(C#N)c2=O)cc1`: the TGI with A498 renal, in the test with NCI-H522 lung, in the test with SNB-75 CNS, in the test with NCI-H23 lung, in the test with MOLT-4 leukemia and in the test on SN12C renal was > 100 µM each time. Moreover, the TGI with SR leukemia, in the test with NCI/ADR-RES ovarian, in the test with DU-145 prostate and in the test with LOX IMVI melanoma was > 100 µM in each case.

Consider `CC(C)(C)OC(=O)NC(Cc1ccc(O)cn1)C(N)=O` (stereo not given), for which the TGI with A498 renal, with NCI-H522 lung, in the test on SNB-75 CNS, with NCI-H23 lung, in the test on MOLT-4 leukemia and with SN12C renal was > 100 µM each time. Also, the TGI in the test with SR leukemia, with NCI/ADR-RES ovarian, in the test on DU-145 prostate and in the test with LOX IMVI melanoma was > 100 µM each time.

On to `O=C1C=C2CO[C@H]3OC[C@H](O)[C@@H]1[C@@H]23`, for which the TGI in the test with A498 renal was > 100 µM; in the test on NCI-H522 lung it was 33.1 µM; with SNB-75 CNS, > 100 µM; in the test with NCI-H23 lung, > 100 µM; with MOLT-4 leukemia, > 100 µM; in the test on SN12C renal, 90 µM. Besides, the TGI was 63.1 µM with SR leukemia, > 100 µM in the test with NCI/ADR-RES ovarian, > 100 µM in the test on DU-145 prostate and > 100 µM in the test with LOX IMVI melanoma.

In the case of `N#Cc1c(N2CCCC2)ncn(Cc2ccccc2)c1=S`, the TGI is > 100 µM in the test on A498 renal; > 100 µM in the test on NCI-H522 lung; > 95.2 µM in the test with SNB-75 CNS; > 100 µM in the test with NCI-H23 lung; > 100 µM in the test with MOLT-4 leukemia; > 100 µM in the test on SN12C renal. For the same compound, the TGI in the test on SR leukemia, in the test on NCI/ADR-RES ovarian, with DU-145 prostate and in the test on LOX IMVI melanoma was > 100 µM each time.

Turning to `c1cc(C[S+]2CCCC2)ccc1C[S+]1CCCC1`, the TGI in the test with A498 renal, with NCI-H522 lung, in the test with SNB-75 CNS, in the test with NCI-H23 lung, in the test on MOLT-4 leukemia and with SN12C renal was > 100 µM each time. Moreover, the TGI in the test on SR leukemia, with NCI/ADR-RES ovarian, in the test on DU-145 prostate and with LOX IMVI melanoma was > 100 µM each time.

Regarding `O=C(Nc1nnc(-c2ccccc2)o1)C(SC(=S)N1CCOCC1)c1ccccc1` (stereo not given), the TGI was 89.6 µM with A498 renal; 93.5 µM with NCI-H522 lung; > 100 µM with SNB-75 CNS; 69 µM in the test with NCI-H23 lung; 83.1 µM with MOLT-4 leukemia; > 100 µM with SN12C renal. Moreover, the TGI in the test on SR leukemia was 83.7 µM; in the test with NCI/ADR-RES ovarian, 64.7 µM; in the test with DU-145 prostate, > 100 µM; in the test with LOX IMVI melanoma it was > 100 µM.

Take `C=CC(C)(C)N[C@@H](C(=O)N1CCC[C@H]1c1nc(-c2nc(C(=O)OCC=C(C)C)c(C)o2)c(C)o1)C(C)C`: the TGI with A498 renal was 39.4 µM; in the test with NCI-H522 lung it was 35.6 µM; in the test with SNB-75 CNS, > 100 µM; with NCI-H23 lung, 48.1 µM; in the test with MOLT-4 leukemia, 36.9 µM; in the test on SN12C renal, 39.2 µM. For the same compound, the TGI was 40.6 µM with SR leukemia, 59 µM in the test on NCI/ADR-RES ovarian, 34 µM with DU-145 prostate and > 100 µM with LOX IMVI melanoma.

`COCN1CCN=c2c1c1c3c(c4ccccc4n23)CCC1`: the TGI in the test with A498 renal, in the test on NCI-H522 lung, in the test on SNB-75 CNS, in the test with NCI-H23 lung, in the test with MOLT-4 leukemia and in the test on SN12C renal was > 100 µM throughout. For the same compound, the TGI in the test on SR leukemia, with NCI/ADR-RES ovarian, with DU-145 prostate and with LOX IMVI melanoma was > 100 µM each time.

Consider `COc1ccc(/C=C(\C(=C/c2ccc(OC)cc2)[N+](=O)[O-])[N+](=O)[O-])cc1`, for which the TGI with A498 renal was 79 µM; in the test with NCI-H522 lung it was 8.8 µM; in the test on SNB-75 CNS it was 68.6 µM; in the test on NCI-H23 lung, 16 µM; in the test with MOLT-4 leukemia, > 70.4 µM; with SN12C renal it was 10.1 µM. Also, the TGI was > 100 µM in the test on SR leukemia, 7.94 µM in the test with NCI/ADR-RES ovarian, 24.6 µM in the test on DU-145 prostate and 5 µM in the test on LOX IMVI melanoma.

Turning to `COc1cc(/C=C2\N=C(c3ccccc3)N(/N=C3\C(=O)Nc4ccccc43)C2=O)cc(OC)c1OC`, the TGI in the test on A498 renal, in the test with NCI-H522 lung, with SNB-75 CNS, in the test on NCI-H23 lung, in the test on MOLT-4 leukemia and in the test with SN12C renal was > 100 µM in each case. The TGI in the test with SR leukemia, in the test with NCI/ADR-RES ovarian, in the test with DU-145 prostate and in the test on LOX IMVI melanoma was > 100 µM throughout.

`CCOC(=O)C1=C(C)C(C(=O)OC)/C(=C/c2cccc3cccnc23)C1=O` (stereo not given): the TGI with A498 renal, in the test on NCI-H522 lung, in the test on SNB-75 CNS, with NCI-H23 lung, in the test on MOLT-4 leukemia and in the test on SN12C renal was > 10 µM throughout. Moreover, the TGI in the test on SR leukemia, in the test with NCI/ADR-RES ovarian, in the test on DU-145 prostate and in the test on LOX IMVI melanoma was > 10 µM in each case.

As to `Cn1c(-c2ccc[se]2)ccc1-c1ccc(CO)[se]1`, the TGI is 0.14 µM in the test on A498 renal; > 100 µM with NCI-H522 lung; > 79.9 µM in the test with SNB-75 CNS; > 84.3 µM in the test with NCI-H23 lung; 98.2 µM with MOLT-4 leukemia; > 100 µM in the test with SN12C renal. Further, the TGI with SR leukemia is 53.5 µM; in the test with NCI/ADR-RES ovarian, 52.2 µM; in the test with DU-145 prostate, > 78 µM; in the test on LOX IMVI melanoma, > 64.1 µM.

`COC(=O)/C=C\C(C#N)(C#N)N=Cc1ccc(C)s1`: the TGI in the test with A498 renal is 34.7 µM; with NCI-H522 lung, 2.01 µM; in the test on SNB-75 CNS it was 19.9 µM; in the test on NCI-H23 lung, 6.69 µM; in the test with MOLT-4 leukemia it was 5.82 µM; in the test with SN12C renal it was 5.91 µM. In addition, the TGI in the test on SR leukemia was found to be 8.17 µM; with NCI/ADR-RES ovarian, 28.7 µM; in the test on DU-145 prostate it was 9.11 µM; with LOX IMVI melanoma it was 3.19 µM.

Turning to `Cc1cn(CC2=NCCCN2)c(=O)[nH]c1=O`, the TGI in the test with A498 renal, in the test with NCI-H522 lung, in the test with SNB-75 CNS, in the test on NCI-H23 lung, in the test on MOLT-4 leukemia and in the test with SN12C renal was > 100 µM throughout. Besides, the TGI with SR leukemia, in the test with NCI/ADR-RES ovarian, in the test with DU-145 prostate and in the test with LOX IMVI melanoma was > 100 µM in each case.

`Fc1ccc(C2CC(c3cccc(Nc4ccncc4)c3)=NN2c2cc(Cl)cc(Cl)c2)cc1` (stereo not given): the GI50 is 1170 nM in the test on A498 renal; 1880 nM with NCI-H522 lung; 1310 nM with SNB-75 CNS; 1700 nM in the test with NCI-H23 lung; 2230 nM in the test with MOLT-4 leukemia; 1690 nM with SN12C renal. Further, the GI50 with SR leukemia is 2060 nM; with NCI/ADR-RES ovarian it was 1710 nM; with DU-145 prostate, 1850 nM; in the test with LOX IMVI melanoma, 1600 nM. The TGI was 2.6 µM in the test on A498 renal; 3.9 µM with NCI-H522 lung; 2.91 µM in the test with SNB-75 CNS; 3.19 µM in the test with NCI-H23 lung; 5.23 µM with MOLT-4 leukemia; 3.16 µM with SN12C renal. The TGI amounted to 4.92 µM with SR leukemia, 3.34 µM in the test on NCI/ADR-RES ovarian, 3.32 µM with DU-145 prostate and 2.94 µM with LOX IMVI melanoma.

Turning to `CC1CC[C@@]2(OC1)O[C@H]1C[C@H]3[C@@H]4CC[C@H]5C[C@@H](OC6OC(CO)C(OC7OC(CO)C(OC8OC(CO)C(O)C(OC9OC(C)C(OC%10OC(C)C(O)C(O)C%10O)C(O)C9O)C8OC8OCC(O)C(O)C8O)C(O)C7O)C(O)C6O)CC[C@]5(C)[C@H]4CC(=O)[C@]3(C)[C@H]1[C@@H]2C` (stereo not given in full), the TGI was 32.1 µM in the test on A498 renal; 42.4 µM with NCI-H522 lung; 36.5 µM with SNB-75 CNS; 35.8 µM with NCI-H23 lung; 34.6 µM in the test with MOLT-4 leukemia; 40.9 µM in the test with SN12C renal. The TGI in the test with SR leukemia was found to be 30.3 µM; in the test on NCI/ADR-RES ovarian, 43.2 µM; with DU-145 prostate, 40.4 µM; in the test on LOX IMVI melanoma it was 53.5 µM.

On to `O=C1OC2(C(F)(F)F)Oc3ccccc3CN2C12CCCCC2` (stereo not given), for which the TGI in the test with A498 renal was > 100 µM; in the test on NCI-H522 lung, 83.3 µM; in the test on SNB-75 CNS it was 59.1 µM; with NCI-H23 lung, 95.2 µM; in the test on MOLT-4 leukemia, 54.3 µM; in the test with SN12C renal it was > 100 µM. For the same compound, the TGI in the test on SR leukemia was 74.8 µM; in the test with NCI/ADR-RES ovarian, > 100 µM; in the test with DU-145 prostate, > 100 µM; with LOX IMVI melanoma it was 52.7 µM.
